# Reference: patent US11285227B2, “Trifunctional constructs with tunablepharmacokinetics useful in imaging and anti-tumor therapies” (CORNELL UNIVERSITY, priority 2017, dated 2022)
# Legend:
# PSMA on LNCaP cells [1] = target: T1, PSMA on LNCaP cells (Homo sapiens, UniProt Q04609); parameters: host or cells: LNCaP; conditions: binding to PSMA on LNCaP cells; cited from earlier work
# [2] = C57BL/6 mice, tail vein, 10-50 kBq; 15 min, 1 h, 5 h
# Method: C57BL/6 mice were injected via tail vein with 10-50 kBq of each radiometal complex and were sacrificed after 15 min, 1 h, or 5 h.
# [3] = test system: LNCaP xenograft tumor-bearing mice; test: Biodistribution studies of 177Lu-labeled ligands in LNCaP xenograft mice; assay type: in vivo
# Method: (§1) Inoculation of mice with xenografts: All animal studies were approved by the Institutional Animal Care and Use Committee of Weill Cornell Medicine and were undertaken in accordance with the guidelines set forth by the USPHS Policy on Humane Care and Use of Laboratory Animals. Animals were housed under standard conditions in approved facilities with 12 h light/dark cycles. Food and water was provided ad libitum throughout the course of the studies. Hairless male nu/nu mice were purchased from the Jackson Laboratory. For inoculation in mice, LNCaP cells were suspended at 4×10^7 cells/mL in a 1:1 mixture of PBS:Matrigel (BD Biosciences). Each mouse was injected in the left flank with 0.25 mL of the cell suspension. The mice were imaged when the tumors reached approximately 200-400 mm^3, while biodistributions were conducted when tumors were in the range 100-400 mm^3.
# Biodistribution studies of ^177Lu-labeled ligands in LNCaP xenograft mice: LNCaP xenograft tumor-bearing mice (5 per time point per compound) were injected intravenously with a bolus injection of 348-851 kBq (9.4-23 μCi) and 37-50 ng (23-25 pmol) of each ligand. The mice were sacrificed at 4, 24 and 96 h post injection. A blood sample was removed, and a full biodistribution study was conducted on the following organs (with contents): heart, lungs, liver, small intestine, large intestine, stomach, spleen, pancreas, kidneys, muscle, bone and tumor. Tissues were weighed and counted on a 2470 Wizard^2 Automatic Gamma Counter (Perkin Elmer). Counts were corrected for decay and for activity injected, and tissue uptake was expressed as percent injected dose per gram (% ID/g). Standard error measurement was calculated for each data point.
# [4] = test system: LNCaP xenograft tumor-bearing mice; test: Dosimetry (dose integrals from 177Lu biodistribution); assay type: in vivo
# Method: Dosimetry: The dosimetry was calculated assuming a linear interpolation between the three time points. The average injected dose per organ was calculated by using the average of the activity and organ weights of the mice at that time point. Intermediate time points at every 4 hours were generated using the linear approximation and all time points were corrected for decay during the time interval between points. These curves were integrated using a trapezoidal approximation and the sum used to determine the residence time.
# [5] = test system: LNCaP xenograft tumor-bearing mice; test: µPET/CT imaging of 66Ga-RPS ligands in LNCaP xenograft mice; assay type: in vivo
# Method: as §1
# Imaging of ^66Ga-RPS ligands in LNCaP xenograft mice: LNCaP xenograft tumor-bearing mice (2-3 per compound) injected intravenously with a bolus injection of 0.56-5.4 MBq (15-145 μCi) of the ^66Ga-labeled ligand. The specific activity of the tracers was in the range 14.8-47 MBq/pmol (0.4-1.27 mCi/pmol). The mice were imaged using μPET/CT (Inveon™; Siemens Medical Solutions, Inc.) at 1, 3, 6 and 24 h post-injection following inhalation anesthetization with isoflurane. Total acquisition time was 30 min for the 1 h, 3 h and 6 h images, and 60 min for 24 h time point. A CT scan was obtained immediately before the acquisition for both anatomical co-registration and attenuation correction. Images were reconstructed using the Inveon™ software supplied by the vendor. Image-derived tumor and kidney uptake was estimated by comparison to a 10% injected dose per cubic mm (% ID/mm^3) standard introduced into the imaging field of view. The standard was prepared by dilution of 10% of the injected activity to 1 mL with saline. Volumes of interest (VOIs) were drawn with the aid of the CT and confirmed by PET. The contents of the VOIs were integrated and the calculated counts were converted to % ID/mm^3 by direct comparison to the aforementioned standard following correction for activity injected.
# [6] = test system: LNCaP xenograft tumor-bearing mice; test: Biodistribution of 225Ac-macropa-RPS-070 in LNCaP xenograft mice; assay type: in vivo; conditions: 4-96 h; no accumulation in liver, spleen, bone
# Method: Cell Culture. […] Cell culture supplies were from Invitrogen unless otherwise noted.
# as §1, with “of Mice” for “of mice”, “with Xenografts.” for “with xenografts:”, “suspension. Biodistributions” for “suspension. The mice were imaged when the tumors reached approximately 200-400 mm^3, while biodistributions”
# Biodistribution of ^225Ac-macropa-RPS-070 in LNCaP xenograft mice. […] Tissues were weighed and counted on a 2470 Wizard Automatic Gamma Counter (Perkin Elmer). 1% ID/mL samples were counted prior to and following each set of tissue samples to enable decay correction to be undertaken. Counts were corrected for decay and for activity injected, and tissue uptake was expressed as percent injected dose per gram (% ID/g). Standard error measurement was calculated for each data point.
# PSMA on LNCaP cells [7] = target: T1, PSMA on LNCaP cells; test: Multi-concentration competitive binding assay against 99mTc-MIP-1427 (Section 1.3); parameters: host or cells: LNCaP; conditions: non-labeled, metal-free ligands; competitive binding in LNCaP cells vs 1 nM 99mTc-MIP-1427, 2 h; read-out: IC50
# Method: Cell Culture: The PSMA expressing human prostate cancer cell line, LNCaP, was obtained from the American Type Culture Collection. Cell culture supplies were obtained from Invitrogen unless otherwise noted. LNCaP cells were maintained in RPMI-1640 medium supplemented with 10% fetal bovine serum (Hyclone), 4 mM L-glutamine, 1 mM sodium pyruvate, 10 mM N-2-hydroxyethylpiperazine-N-2-ethanesulfonic acid (HEPES), 2.5 mg/mL D-glucose, and 50 μg/mL gentamicin in a humidified incubator at 37° C./5% CO2. Cells were removed from flasks for passage or for transfer to 12-well assay plates by incubating them with 0.25% trypsin/ethylenediaminetetraacetic acid (EDTA).
# In vitro determination of IC50: IC50 values of the non-labeled, metal-free ligands were determined by screening in a multi-concentration competitive binding assay against ^99mTc-((7S,12S,16S)-1-(1-(carboxymethyl)-1H-imidazol-2-yl)-2-((1-(carboxymethyl)-1H-imidazol-2-yl)methyl)-9,14-dioxo-2,8,13,15-tetraazaoctadecane-7,12,16,18-tetracarboxylic acid technetium tricarbonyl complex) (^99mTc-MIP-1427) for binding to PSMA on LNCaP cells, according to previously described methods [18,19] with small modifications. Briefly, LNCaP cells were plated 48 h prior to the experiment to achieve a density of approximately 5×10^5 cells/well (in triplicate) in RPMI-1640 medium supplemented with 0.25% bovine serum albumin. The cells were incubated for 2 h with 1 nM ^99mTc-MIP-1427 in serum-free RPMI-1640 medium in the presence of 0.001-10,000 nM test compounds. Radioactive incubation media was then removed by pipette and the cells were washed twice using 1 mL ice-cold PBS 1× solution. Cells were harvested from the plates following treatment with 1 mL 1M NaOH and transferred to tubes for radioactive counting using a 2470 Wizard^2 Automatic Gamma Counter (Perkin Elmer). Standard solutions (10% of activity added to each well) were prepared to enable decay correction. IC50 values were determined by fitting the data points to a sigmoidal Hills1 curve in Origin software.
# T1 sequence (Q04609 whole entry): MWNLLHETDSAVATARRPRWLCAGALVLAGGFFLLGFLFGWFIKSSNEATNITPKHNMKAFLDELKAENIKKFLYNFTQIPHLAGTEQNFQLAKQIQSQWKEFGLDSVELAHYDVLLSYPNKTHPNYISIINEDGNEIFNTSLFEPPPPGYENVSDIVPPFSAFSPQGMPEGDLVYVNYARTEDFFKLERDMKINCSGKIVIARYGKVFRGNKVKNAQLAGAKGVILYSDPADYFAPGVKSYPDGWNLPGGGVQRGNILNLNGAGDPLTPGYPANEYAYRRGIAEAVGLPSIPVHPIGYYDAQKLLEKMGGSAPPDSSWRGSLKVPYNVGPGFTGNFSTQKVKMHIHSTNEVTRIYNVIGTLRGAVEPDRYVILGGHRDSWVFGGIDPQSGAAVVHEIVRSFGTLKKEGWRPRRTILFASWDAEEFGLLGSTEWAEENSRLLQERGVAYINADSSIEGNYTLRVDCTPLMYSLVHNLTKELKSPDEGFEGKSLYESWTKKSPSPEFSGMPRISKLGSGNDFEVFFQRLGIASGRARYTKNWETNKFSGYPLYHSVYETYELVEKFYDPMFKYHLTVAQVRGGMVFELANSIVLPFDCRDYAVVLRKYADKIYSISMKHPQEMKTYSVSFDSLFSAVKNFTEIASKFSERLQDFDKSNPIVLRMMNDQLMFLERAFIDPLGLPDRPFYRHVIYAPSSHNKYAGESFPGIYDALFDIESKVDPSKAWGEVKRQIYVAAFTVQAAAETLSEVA
molecule,measurement,setting,value
"^99mTc-((7S,12S,16S)-1-(1-(carboxymethyl)-1H-imidazol-2-yl)-2-((1-(carboxymethyl)-1H-imidazol-2-yl)methyl)-9,14-dioxo-2,8,13,15-tetraazaoctadecane-7,12,16,18-tetracarboxylic acid technetium tricarbonyl complex) [^99mTc-MIP-1427]",Kd,PSMA on LNCaP cells [1],0.64 ± 0.46 nM
"O=C([O-])CN1CCN(CC(=O)[O-])CCN(CC(=O)[O-])CCN(CC(=O)[O-])CC1.[225Ac+3] [[^225Ac(DOTA)]^−, reference compound]",Biodistribution profile (clearance),[2],appeared to clear more rapidly through the urine
"O=C(O)CCC(NC(=O)NC(CCCCNC(=O)C(Cc1ccc2ccccc2c1)NC(=O)C1CCC(CNC(=O)CN2CCN(CC(=O)O)CCN(CC(=O)O)CCN(CC(=O)O)CC2)CC1)C(=O)O)C(=O)O (centres unmarked) [^177Lu-PSMA-617, metal not drawn, reference compound]",Kidney uptake,[3]; 4 h p.i.,14.1±3.1 % ID/g
same,Tumor uptake,[3]; 4 h p.i.,14.4±1.1 % ID/g
same,Tumor uptake,[3]; 96 h p.i.,3.5±0.3 % ID/g
same,Tumor-to-kidney ratio,[3]; 96 h p.i.,14.39±2.2
same,Ratio of tumor dose integral to kidney dose integral,[4]; over the 96 h,1.95
"O=C(O)CCC(NC(=O)NC(CCCCNC(=O)C(Cc1ccc2ccccc2c1)NC(=O)C1CCC(CNC(=O)CN2CCN(CC(=O)O)CCN(CC(=O)O)CCN(CC(=O)O)CC2)CC1)C(=O)O)C(=O)O (centres unmarked) [^66Ga-PSMA-617, metal not drawn, reference compound]",Tumor uptake (image-derived),[5]; 24 h post injection,1.1±0.4 % ID/cm^3
same,Maximum tumor uptake (image-derived),[5]; maximum at 1 h post injection,3.1±0.4 % ID/cm^3
"O=C(O)CCC(NC(=O)NC(CCCCNC(=O)Nc1cccc(-c2cnnn2CC(=O)NC(CCCCNC(=S)Nc2ccc(CC3CN(CC(=O)O)CCN(CC(=O)O)CCN(CC(=O)O)CCN3CC(=O)O)cc2)C(=O)NC(CCCCNC(=O)Cc2ccc(I)cc2)C(=O)O)c1)C(=O)O)C(=O)O (centres unmarked) [^66Ga-RPS-068, metal not drawn]",Kidney uptake (image-derived),[5]; 24 h post injection,1.9±0.3 % ID/cm^3
same,Maximum tumor uptake (image-derived),[5]; maximum at 3 h post injection,9.7±2.0 % ID/cm^3
"O=C(O)CC[C@H](NC(=O)N[C@@H](CCCCNC(=O)Nc1cccc(-c2cn(CCOCCOCCOCCOCCOCCOCCC(=O)N[C@@H](CCCCNC(=S)Nc3cc(CN4CCOCCOCCN(Cc5cccc(C(=O)O)n5)CCOCCOCC4)nc(C(=O)O)c3)C(=O)N[C@@H](CCCCNC(=O)Cc3ccc(I)cc3)C(=O)O)nn2)c1)C(=O)O)C(=O)O [macropa-RPS-070, (((S)-1-Carboxy-5-(3-(3-(1-((23S,26S)-26-carboxy-23-(4-(3-(2-carboxy-6-((16-((6-carboxypyridin-2-yl)methyl)-1,4,10,13-tetraoxa-7,16-diazacyclooctadecan-7-yl)methyl)pyridin-4-yl)thioureido)butyl)-33-(4-iodophenyl)-21,24,32-trioxo-3,6,9,12,15,18-hexaoxa-22,25,31-triazatritriacontyl)-1H-1,2,3-triazol-4-yl)phenyl)ureido)pentyl)carbamoyl)-L-glutamic acid]",Retention of 225Ac in vivo,[6],can stably retain ^225Ac in vivo over several days
O=C([O-])c1cccc(CN2CCOCCOCCN(Cc3cccc(C(=O)[O-])n3)CCOCCOCC2)n1.[225Ac+3] [[^225Ac(macropa)]^+],Biodistribution profile (clearance),[2],"rapidly cleared from mice, with very little activity measured in blood by 1 h post injection"
same,Organ accumulation / in vivo stability of the complex,[2],did not accumulate in any organ
"O=C(O)CC[C@H](NC(=O)N[C@@H](CCCCNC(=O)Nc1cccc(-c2cn(CCOCCOCCOCCOCCOCCOCCC(=O)N[C@@H](CCCCNC(=S)Nc3ccc(CC4CN(CC(=O)O)CCN(CC(=O)O)CCN(CC(=O)O)CCN4CC(=O)O)cc3)C(=O)N[C@@H](CCCCNC(=O)Cc3ccc(I)cc3)C(=O)O)nn2)c1)C(=O)O)C(=O)O (stereo partly drawn) [RPS-069, (((1S)-1-carboxy-5-(3-(3-(1-((23S,26S)-26-carboxy-33-(4-iodophenyl)-21,24,32-trioxo-23-(4-(3-(4-((1,4,7,10-tetrakis(carboxymethyl)-1,4,7,10-tetraazacyclododecan-2-yl)methyl)phenyl)thioureido)butyl)-3,6,9,12,15,18-hexaoxa-22,25,31-triazatritriacontyl)-1H-1,2,3-triazol-4-yl)phenyl)ureido)pentyl)carbamoyl)-L-glutamic acid]",Max. Tumor Uptake,"[3]; corresponding 177Lu-labeled compound, a = 4 h p.i.",17.0 % ID/g
same,IC50,PSMA on LNCaP cells [7],3.8 nM
"O=C(O)CCC(NC(=O)NC(CCCCNC(=O)Nc1cccc(-c2cnnn2CC(=O)NC(CCCCNC(=S)Nc2ccc(CC3CN(CC(=O)O)CCN(CC(=O)O)CCN(CC(=O)O)CCN3CC(=O)O)cc2)C(=O)NC(CCCCNC(=O)Cc2ccc(I)cc2)C(=O)O)c1)C(=O)O)C(=O)O (centres unmarked) [^177Lu-RPS-068, metal not drawn]",Tumor uptake (in words),[3]; 4-96 h p.i.,high and remained high
same,Blood activity (in words),[3]; 4 h p.i.,highest blood activity
same,Tumor uptake,[3]; 4 h p.i.,21.8±2.8 % ID/g
same,Kidney uptake,[3]; 24 h p.i.,87.3±6.7 % ID/g
same,Tumor uptake,[3]; 96 h p.i.,14.9±1.5 % ID/g
same,Tumor-to-kidney ratio,[3]; 96 h p.i.,1.56±0.23
same,Dose integral in the tumor relative to 177Lu-PSMA-617,[4]; over 96 h,nearly four times higher
